Data taken from US20140056835A1, “COSMETIC COMPOSITION FOR SKIN WHITENING COMPRISING SMALL MOLECULE-PEPTIDE CONJUGATE” (AE KYUNG INDUSTRIAL CO., LTD., priority 2012, published 2014).

Experiments:
[1] = test system: B16F1 melanoma cells; assay: Test for inhibitory effect on melanin production; assay type: cell-based; details: sample 50 uM, incubated for 2 days; for inhibition at 50 µM: Mus musculus, B16-F1, 48 h, read-out: Melanin production inhibition rate (%)
Method: Inhibitory effect on melanin formation was measured using B16F1 melanoma cells. B16F1 melanoma cells were inoculated into a 6-well plate at a density of 3×10^5 (cells/well) with DMEM containing 10% FBS. […] After 2 days, the medium was removed and the cells were washed with PBS (phosphate buffered saline), treated with trypsin, and then retrieved. The retrieved cells were centrifuged and the supernatant was discarded. Intracellular melanin was obtained by treating the cells with 0.2 ml of 1N NaOH+10% DMSO solution. The collected cells were transferred to a 96-well plate and absorbance was measured at 490 nm. The amount of intracellular melanin was estimated using standard curve with synthetic melanin as a standard substance. The amount of protein was quantified via absorbance measurement using a protein assay reagent. For the amount of melanin produced, the amount of melanin for a given protein was estimated.

[2] = target: T1, Tyrosinase (Agaricus bisporus, UniProt C7FF04); assay: Test for inhibitory effect on tyrosinase activity (dopachrome absorbance at 475 nm); assay type: biochemical, mushrooms; details: L-tyrosine substrate, 10 min at 37° C.; for inhibition at 50 µM / inhibition at 100 µM: read-out: Tyrosinase activity inhibition rate (%)
T1 construct: purchased Sigma; host or cells: natural source: mushrooms
T1 sequence (C7FF04 1-392 limits assumed): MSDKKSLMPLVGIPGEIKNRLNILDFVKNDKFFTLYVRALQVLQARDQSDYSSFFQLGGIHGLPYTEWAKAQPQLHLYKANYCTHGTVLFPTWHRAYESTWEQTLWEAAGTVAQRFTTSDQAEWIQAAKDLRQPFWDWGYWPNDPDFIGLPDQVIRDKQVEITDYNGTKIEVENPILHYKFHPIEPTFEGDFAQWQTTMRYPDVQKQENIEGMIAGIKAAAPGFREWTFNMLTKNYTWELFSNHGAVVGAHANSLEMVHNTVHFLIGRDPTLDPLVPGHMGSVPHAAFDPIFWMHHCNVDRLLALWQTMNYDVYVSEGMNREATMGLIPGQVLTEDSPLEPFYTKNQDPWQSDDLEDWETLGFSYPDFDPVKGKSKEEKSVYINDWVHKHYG

[3] = test system: skin; details: in vivo

SMILES | inhibition at 50 µM ([2]; sample 50 uM) [%] | inhibition at 100 µM ([2]; sample 100 uM) [%] | inhibition at 50 µM [1] [%] | Melanin production inhibition rate (%) [1] [%] | Degree of irritation [3] | Skin irritation [3] | Tyrosinase activity inhibition rate (%) ([2]; sample 50 uM) | Tyrosinase activity inhibition rate (%) ([2]; sample 100 uM)
OC[C@H]1O[C@@H](Oc2ccc(O)cc2)[C@H](O)[C@@H](O)[C@@H]1O [Arbutin] | 9.2 | 14.4 | 18 | – | – | – | – | –
CC(C)C[C@H](NC(=O)/C=C/c1ccc(O)c(O)c1)C(=O)NCC(N)=O [Caffeic acid-LG-NH2, Caffeic acid-Leu-Gly-NH2] | – | – | – | 41 | None | no irritation | 24.2 | 26.8
CC(C)C[C@H](NC(=O)/C=C/c1ccc(O)cc1)C(=O)NCC(N)=O [Coumaric acid-LG-NH2, Coumaric acid-Leu-Gly-NH2] | – | – | – | 45.3 | None | no irritation | 25.1 | 34.8

Now from value to compound, other results behind:

inhibition at 50 µM ([2]; sample 50 uM) [%] | inhibition at 100 µM ([2]; sample 100 uM) [%] | SMILES | inhibition at 50 µM [1] [%] | Melanin production inhibition rate (%) [1] [%] | Degree of irritation [3] | Skin irritation [3] | Tyrosinase activity inhibition rate (%) ([2]; sample 50 uM) | Tyrosinase activity inhibition rate (%) ([2]; sample 100 uM)
– | 21.3 | O=C(O)/C=C/c1ccc(O)c(O)c1 [Caffeic acid] | 16 | – | – | – | – | –
21.3 | 24.6 | O=C(O)/C=C/c1ccc(O)cc1 [Coumaric acid] | 23 | – | – | – | – | –
